Among the test systems are CCRF-CEM leukemia; HCT-15 colon; MOLT-4 leukemia; RPMI-8226 leukemia; SF-295 CNS; SF-539 CNS; SK-MEL-28 melanoma; SW-620 colon; HL-60(TB) leukemia; NCI-H460 lung.
What all share (experiment): inhibition of tumour cell growth, NCI panel, 48 h

Structures are written as SMILES.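 The compound was tested at five concentrations on cells cultured in 96-well plates, with a 48-hour exposure period. GI50 = concentration required for 50% inhibition of growth. Definition used: TGI = concentration required for complete inhibition of growth.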 A value given as a limit tells only on which side of the number the result lay.

With `COC1=CC2(C=CC1=O)c1cc(OC)c(OC)cc1CCN2C(=O)c1ccccc1` (stereo unspecified), the TGI in the test on CCRF-CEM leukemia, with HCT-15 colon, in the test on MOLT-4 leukemia, with RPMI-8226 leukemia, with SF-295 CNS and in the test with SF-539 CNS was over 100 µM each time. Moreover, the TGI in the test on SK-MEL-28 melanoma and in the test with SW-620 colon was over 100 µM each time.

Regarding `CCCCCCC(=O)C/C(=N/NC(N)=S)C(=O)NC1C2CC3CC(C2)CC1C3` (stereo unspecified), the TGI in the test on CCRF-CEM leukemia, in the test on HL-60(TB) leukemia, in the test with MOLT-4 leukemia, in the test on NCI-H460 lung, in the test on RPMI-8226 leukemia and in the test with SF-295 CNS was over 100 µM each time. Also, the TGI in the test with SK-MEL-28 melanoma and in the test on SW-620 colon was over 100 µM each time.

On to `Cc1nc2ccccc2c(=O)n1-c1ccccc1F`, for which the TGI in the test on CCRF-CEM leukemia, with HCT-15 colon, with HL-60(TB) leukemia, in the test with MOLT-4 leukemia, with NCI-H460 lung and with SF-295 CNS was over 100 µM in each case. In addition, the TGI in the test on SF-539 CNS, with SK-MEL-28 melanoma and in the test with SW-620 colon was over 100 µM in each case.

As for `C=C[C@H]1C[C@@H]2C[C@@H]3[C@H]4C/C=C\C(=O)NCCCC5NC(=O)C(=C(O)/C=C/[C@@H]4CC(=O)[C@H]3[C@@H]2[C@H]1C)C5=O` (stereo partly specified), the GI50 is 0.294 µM in the test on HCT-15 colon; 1.68 µM in the test on HL-60(TB) leukemia; 0.348 µM in the test on NCI-H460 lung; 1.5 µM in the test with RPMI-8226 leukemia; 0.248 µM in the test on SF-539 CNS; 0.203 µM in the test on SK-MEL-28 melanoma. Further, the GI50 in the test with SW-620 colon is 1.66 µM. The TGI is 0.949 µM in the test with HCT-15 colon; 3.42 µM with HL-60(TB) leukemia; 1.2 µM in the test on NCI-H460 lung; 3.68 µM with RPMI-8226 leukemia; 0.666 µM in the test with SF-539 CNS; 0.399 µM with SK-MEL-28 melanoma. The molecule also yielded a TGI with SW-620 colon of 3.13 µM.

For `Cn1c2ccccc2c2c3[nH]c(=O)[nH]c(=O)c3c3c4ccccc4n(C)c3c21`, the GI50 in the test with CCRF-CEM leukemia was 3.73 µM; in the test with HCT-15 colon it was 1.62 µM; with HL-60(TB) leukemia it was over 100 µM; with NCI-H460 lung it was 3.09 µM; with SF-295 CNS, 10.5 µM; in the test with SF-539 CNS it was 1.78 µM. Also, the GI50 is 4.5 µM in the test on SK-MEL-28 melanoma and 2.67 µM in the test on SW-620 colon. Also, the TGI with CCRF-CEM leukemia was over 100 µM; with HCT-15 colon it was over 100 µM; in the test with HL-60(TB) leukemia, over 100 µM; in the test on NCI-H460 lung, over 100 µM; in the test with SF-295 CNS it was 27.8 µM; in the test with SF-539 CNS, 6.61 µM. The TGI in the test on SK-MEL-28 melanoma and in the test on SW-620 colon was over 100 µM each time.

Take `Cc1ccc2[nH]c(C(=O)NN3C(=O)C(C)SC34CCCC(C)C4)c(-c3ccccc3)c2c1` (stereo unspecified): the GI50 was 74.1 µM in the test with CCRF-CEM leukemia; 87 µM in the test with HCT-15 colon; 19.3 µM in the test on MOLT-4 leukemia; 83.3 µM in the test on NCI-H460 lung; 53.1 µM with RPMI-8226 leukemia; 68.5 µM in the test with SF-295 CNS. Further, the GI50 in the test with SF-539 CNS, in the test on SK-MEL-28 melanoma and in the test on SW-620 colon was over 100 µM throughout. Also, the TGI with CCRF-CEM leukemia, with HCT-15 colon, in the test on MOLT-4 leukemia, in the test on NCI-H460 lung, with RPMI-8226 leukemia and with SF-295 CNS was over 100 µM in each case. Further, the TGI in the test on SF-539 CNS, with SK-MEL-28 melanoma and in the test on SW-620 colon was over 100 µM throughout.

For `O=C(/C(=C/c1cccc([N+](=O)[O-])c1)c1ccccc1)c1ccccc1`, the GI50 with CCRF-CEM leukemia was 2.17 µM; in the test with HCT-15 colon it was 2.75 µM; in the test with MOLT-4 leukemia, 3.13 µM; in the test on NCI-H460 lung, 3.32 µM; in the test on RPMI-8226 leukemia it was 2.34 µM; in the test on SF-295 CNS it was 4.08 µM. Also, the GI50 is 3.49 µM in the test with SF-539 CNS, 2.84 µM in the test with SK-MEL-28 melanoma and 3.1 µM in the test with SW-620 colon. Besides, the TGI in the test on CCRF-CEM leukemia is 27.8 µM; in the test on HCT-15 colon it was 16.5 µM; with MOLT-4 leukemia, 11.6 µM; with NCI-H460 lung, 12.6 µM; in the test on RPMI-8226 leukemia it was 7.68 µM; with SF-295 CNS, 20.2 µM. In addition, the TGI with SF-539 CNS was determined as 11.9 µM; in the test with SK-MEL-28 melanoma, 8.97 µM; with SW-620 colon, 9.19 µM.

For the molecule `CC(=O)N1C/C(=C\c2ccc(N(C)C)cc2)C(=O)/C(=C/c2ccc(N(C)C)cc2)C1`, the TGI with CCRF-CEM leukemia, with HCT-15 colon, in the test on HL-60(TB) leukemia, in the test with MOLT-4 leukemia, in the test with RPMI-8226 leukemia and in the test with SF-295 CNS was over 100 µM each time. In addition, the figures for the TGI in the test with SF-539 CNS, with SK-MEL-28 melanoma and with SW-620 colon were 52.2 µM, over 100 µM and over 100 µM, respectively.

`CCCCCN(CCCCC)CC(O)c1ccc(Cl)c2ccccc12` (stereo unspecified): the GI50 was 10.5 µM with CCRF-CEM leukemia; 6.98 µM in the test with HCT-15 colon; 5.5 µM with HL-60(TB) leukemia; 6.69 µM in the test with MOLT-4 leukemia; 3.72 µM in the test on NCI-H460 lung; 6.43 µM in the test on RPMI-8226 leukemia. Also, the GI50 in the test on SF-295 CNS was 3.99 µM; with SK-MEL-28 melanoma, 11.2 µM; in the test with SW-620 colon it was 2.77 µM. Also, the TGI in the test on CCRF-CEM leukemia is 33.1 µM; with HCT-15 colon it was 22.1 µM; with HL-60(TB) leukemia it was 20.9 µM; with MOLT-4 leukemia, 24 µM; with NCI-H460 lung, 19.1 µM; in the test with RPMI-8226 leukemia it was 27.6 µM. Moreover, the results for the TGI in the test on SF-295 CNS, in the test with SK-MEL-28 melanoma and in the test on SW-620 colon were 26.3 µM, 24.4 µM and 13.6 µM, respectively.

Turning to `C/C=C1/C(=C/c2[nH]c(/C=c3\[nH]/c(=C/C4=NC(=O)C(CC)=C4C)c(C)c3CCC(=O)O)c(CCC(=O)O)c2C)NC(=O)C1C` (stereo unspecified), the GI50 in the test on CCRF-CEM leukemia, with HCT-15 colon, in the test on HL-60(TB) leukemia, in the test with MOLT-4 leukemia, with NCI-H460 lung and in the test on RPMI-8226 leukemia was over 150 µg/mL in each case. Moreover, the GI50 with SF-539 CNS, in the test with SK-MEL-28 melanoma and in the test on SW-620 colon was over 150 µg/mL in each case. Further, the TGI in the test with CCRF-CEM leukemia, in the test with HCT-15 colon, with HL-60(TB) leukemia, in the test with MOLT-4 leukemia, with NCI-H460 lung and in the test with RPMI-8226 leukemia was over 150 µg/mL each time. The TGI in the test on SF-539 CNS, in the test on SK-MEL-28 melanoma and in the test on SW-620 colon was over 150 µg/mL throughout.

For the origin of these results see PubChem BioAssay (NCI).
